Laboratory results as given in article doi:10.1101/2024.03.08.584059, “AllTheBacteria: a community resource empowers biology and discovers novel peptide antibiotics” (bioRxiv, 2026).
“Also recorded” adds a separate entry of the source. Ends that are not written are not given here. Peptide text beside a SMILES is read from it.

Experiments:
A. baumannii ATCC 19606 [1] = test: NPN uptake outer membrane permeabilization assay; format: cell-based, Acinetobacter baumannii
Method: (§1) We next tested whether ATB peptides act primarily by disrupting the bacterial membrane, we assessed their ability to depolarize the cytoplasmic membrane and permeabilize the outer membrane of A. baumannii ATCC 19606 at their MICs using DiSC3-5 and NPN uptake assays, respectively. […] Fluorescence data were analysed in terms of both maximal signal over time and time-resolved kinetic profiles.
N-phenyl-1-napthylamine (NPN) uptake assay was used to evaluate the ability of the peptides to permeabilize the bacterial outer membrane. Inocula of A. baumannii ATCC 19606 were grown to an OD at 600 nm of 0.4 mL^−1, centrifuged (9,391 ģ at 4 °C for 10 min), washed and resuspended in 5 mmol L^−1 HEPES buffer (pH 7.4) containing 5 mmol L^−1 glucose. The bacterial solution was added to a white 96-well plate ([…] per well) together with […] of NPN at 0.5 mmol L^−1. Consequently, peptides diluted in water were added to each well, and the fluorescence was measured at lex = 350 nm and lem = 420 nm over time for 45 min. The relative fluorescence was calculated using the untreated control (buffer + bacteria + fluorescent dye) and polymyxin B (positive control) as baselines and the following equation was applied to reflect % of difference between the baselines and the sample: Percentagedifference=100*flurescencesample-flurescenceuntreatedcontrol/flurescenceuntreatedcontrol

[2] = tested on: human embryonic kidney (HEK293T) cells; settings: 24 h
Method: The cells were cultured in high-glucose Dulbecco’s modified Eagle’s medium supplemented with 1% penicillin and streptomycin (antibiotics) and 10% fetal bovine serum and grown at 37 °C in a humidified atmosphere containing 5% CO2.
One day prior to the experiment, 100 μL aliquots of human embryonic kidney (HEK293T) cells, at a concentration of 50,000 cells per mL, were seeded into each well of 96-well plates (5,000 cells per well). Following cell attachment, the HEK293T cells were treated with increasing concentrations of peptides (ranging from 8 to 128 μmol L^−1) and incubated for 24 h. After the exposure period, cytotoxicity was assessed using the 3-(4,5-dimethylthiazol-2-yl)-2,5-diphenyltetrazolium bromide (MTT) assay. Specifically, the MTT reagent was prepared at a concentration of 0.5 mg mL^−1 in phenol red-free medium and used to replace the peptide-containing supernatants (100 μL per well). The plates were then incubated for 4 h at 37 °C in a humidified atmosphere with 5% CO2, facilitating the formation of insoluble formazan crystals. These crystals were subsequently dissolved in 0.04 mol L^−1 hydrochloric acid prepared in anhydrous isopropanol. Absorbance was measured at 570 nm using a spectrophotometer to quantify cell viability. All experiments were conducted in triplicate (three biological replicates).
To evaluate the safety profile of the ATB peptides, we measured their cytotoxicity against human embryonic kidney (HEK293T) cells using a 3-(4,5-dimethylthiazol-2-yl)-2,5-diphenyltetrazolium bromide (MTT) viability assay and determined half-maximal cytotoxic concentrations (CC50). […]
index as the ratio CC50 (HEK293T) / MIC against A. baumannii ATCC 19606.

A. baumannii ATCC 19606 [3] = test: DiSC3-5 cytoplasmic membrane depolarization assay; format: cell-based, Acinetobacter baumannii; settings: peptides at their MICs; HEPES buffer pH 7.2, 20 mmol L^−1 glucose, 0.1 mol L^−1 KCl; 60 min; responses remained below Triton X-100; in words
Method: as §1
The cytoplasmic membrane depolarization assay was performed using the membrane potential-sensitive dye 3,3’-dipropylthiadicarbocyanine iodide (DiSC3-5). A. baumannii ATCC 19606 in the mid-logarithmic phase were washed and resuspended at 0.05 OD mL^−1 (optical value at 600 nm) in HEPES buffer (pH 7.2) containing 20 mmol L^−1 glucose and 0.1 mol L^−1 KCl. […] Membrane depolarization was then followed by reading changes in the fluorescence (lex = 622 nm, lem = 670 nm) over time for 60 min. The relative fluorescence was calculated using the untreated control (buffer + bacteria + fluorescent dye) and polymyxin B (positive control) as baselines and the following equation was applied to reflect % of difference between the baselines and the sample: Percentagedifference=100*flurescencesample-flurescenceuntreatedcontrol/flurescenceuntreatedcontrol

A. baumannii ATCC 19606 [4] = test: microbe, parasite or virus in culture; settings: Fig. 4 heat map; broth microdilution, LB, 10[5] bacterial cells, 0–64 μmol L^−1, 37 °C, one day, OD600; mode of replicates (triplicate)
Method: Figure 4. […] Briefly, 10[5] bacterial cells were incubated with serially diluted peptides (0–64 μmol L^−1) at 37 °C. Bacterial growth was assessed by measuring the optical density at 600 nm in a microplate reader one day post-treatment.

[5] = peptides at their MICs, 5 mmol L^−1 HEPES pH 7.4, 5 mmol L^−1 glucose, 45 min, rank order in words relative to bacterial baseline

| Molecule | half-maximal cytotoxic concentration (CC50) [2] [µM] | outer membrane permeabilization (NPN fluorescence response) (A. baumannii ATCC 19606 [1]; [5]) | further results |
| --- | --- | --- | --- |
| CC[C@H](C)CCCCC(=O)N[C@@H](CCN)C(=O)N[C@H](C(=O)N[C@@H](CCN)C(=O)N[C@H]1CCNC(=O)[C@H]([C@@H](C)O)NC(=O)[C@H](CCN)NC(=O)[C@H](CCN)NC(=O)[C@H](CC(C)C)NC(=O)[C@@H](Cc2ccccc2)NC(=O)[C@H](CCN)NC1=O)[C@@H](C)O [Polymyxin B, reference compound] (HELM PEPTIDE1{[CC[C@H](C)CCCCC(=O)[*:2]].[Dab].T.[Dab].[Dab].[Dab].[dF].L.[Dab].[Dab].T}$PEPTIDE1,PEPTIDE1,5:R3-11:R2$$$V2.0; N-terminus assumed; bridges inferred) | – | – | outer membrane permeabilization (NPN fluorescence response) (A. baumannii ATCC 19606 [1]; pH 7.4): remained at or near baseline |
| MFKTNLSRVSVKRLLIWVVWWLRLKKLKKKAKKFRKK-OH [ATB60] | 9 to 12 | strong outer-membrane permeabilization; also recorded: largest NPN responses | cytoplasmic membrane depolarization signal (DiSC3-5 fluorescence) (A. baumannii ATCC 19606 [3]): larger depolarization signals |
| MIKVSKLVVAKKLNLRKKLKKYLKKPKLGKILLL-OH [ATB12] | 20 to 100 | – | – |
| MIMATKLIKKNKFAKELFSRKYKPRVIKPKKGKGSFKRKKR-OH [ATB99] | – | largest NPN responses | – |
| MKILKKNMHNKILPMVSHKKWMMLIKRLKTLGRIKK-OH [ATB56] | 20 to 100 | – | – |
| MKKLIRNIIYSKLKFLWRWHRPLIIQRRNL-OH [ATB65] | 5 to 6 | strong outer-membrane permeabilization; also recorded: largest NPN responses | cytoplasmic membrane depolarization signal (DiSC3-5 fluorescence) (A. baumannii ATCC 19606 [3]): larger depolarization signals |
| MKKLKIKKLKIKKLKIKKLKIKKLKSGLRSQ-OH [ATB2] | – | only minor NPN increases | – |
| MKLKKLIKFFAFAKGISLLSRRPVRKRTGGLLKKYLAWKYLRRR-OH [ATB6] | 20 to 100 | – | – |
| MLGRKGLRSVWNGRLNVRKRRQNVRLRKNVRRKNVPKPSVWLI-OH [ATB39] | 20 to 100 | – | cytoplasmic membrane depolarization signal (DiSC3-5 fluorescence) (A. baumannii ATCC 19606 [3]): larger depolarization signals |
| MLKGLKKFKWLKKLKRRLMELNELKKFKKLMELRS-OH [ATB13] | 9 to 12 | – | – |
| MLKLLKKLQMHLLKKLQKEKLLLNLQKKTLKRKRFRHA-OH [ATB61] | 20 to 100 | largest NPN responses | – |
| MLKLLSIKLKSKKKILRMTLTKLNKWLKTKKKWLRNLKTM-OH [ATB5] | 9 to 12 | only minor NPN increases | Minimal Inhibitory Concentration, A. baumannii ATCC 19606 (-) (A. baumannii ATCC 19606 [4]): 1 µmol/L |
| MNKIILRVKKMLKNIKLKNNGIRKYNVKMEVKLVYFK-OH [ATB63] | – | largest NPN responses | cytoplasmic membrane depolarization signal (DiSC3-5 fluorescence) (A. baumannii ATCC 19606 [3]): larger depolarization signals |
| MRIKLHLRLAFLRFRKKKSLSRLKPISKIRSK-OH [ATB76] | 9 to 12 | strong outer-membrane permeabilization; also recorded: largest NPN responses | – |
| MRSLKRQLLKHKAVKLSIKKWQFLRKLKLVPKRH-OH [ATB18] | 9 to 12 | – | – |
| MSLKKIAKLLANKKVRKIAWMLISHPKFIKMLKNSIKRR-OH [ATB55] | 5 to 6 | – | – |
| MSLRKKLFVKTMLRVKIKKQSKQRLQKTKRLLQKLKRPWM-OH [ATB3] | 20 to 100 | – | – |
| MTKHAIAAKSLLKKWIISRPLNMKKKSSPFQKIRKMFKRFFK-OH [ATB25] | 5 to 6 | – | – |
| MTKLKMYLKKVRKNANNSTKQWKYGLPVRNAKLWNNFQPKK-OH [ATB51] | 20 to 100 | – | – |
